Entries after “also recorded” stand apart in the source; their conditions may differ.
Legend:
[1] = system: HES cells; assay: Survival of HES cells after trypsin treatment, individualized and seeded in TeSR medium; type: cell-based, human; settings: 0.1% trypsin; seeding onto Matrigel coated plates in TeSR medium
Source text: The inventors utilized the system described in Example 1 and developed procedures for passaging of HES cells that were based on simple liquid handling protocols. Recent innovations in splitting techniques allowed for efficient automation of this otherwise demanding manual procedure. Since HES cells require cell-cell contacts for survival in TeSR media, they needed to be seeded in clumps which required scraping of attached cells, a procedure which would be very hard to automate.
For automated passaging, the following procedure was developed: After retrieval of the mother plate from the incubator, the wash tool removes the spent media as described in aim 1. The 8-channel 200 μl pipetting tool MP200 is used to add […] of trypsin (0.1%). […] The cells are washed off the plate surface and mixed using the 8-channel MP200 tool by repetitive dispensing and aspiration. Cells are then dispensed to the daughter plates using the MP200 tool. The cells are then seeded 1 to 32 onto precoated Matrigel plates loaded from the stacker to the Biomek2000. […] The total surface area of the initially used Omnitray turned out to be too large for the throughput of the system at the stage of the next split once the inventors tested methods for passaging HES cells in aim 2. […]

[2] = system: HES cells; assay: Seeding and colony formation of individualized HES cells in 96-well plates; type: cell-based, human
Source text: For this purpose however the inventors plated 16,000 cells per well, which is a 5-fold higher seeding density, than in the regular propagation and maintenance of undifferentiated HES cells with the automated procedure.

[3] = system: HES cells; settings: Watanabe et al. Nat Biotech (2007); cited from earlier work

SMILES	survival of HES cells after trypsin treatment [1]	seeding of individualized HES cells in 96-well plates ([2]; 96-well plates)	colony formation of HES cells from individualized cells ([2]; TeSR1 media)	ability to maintain HES cell growth [3]
Cc1cncc2cccc(S(=O)(=O)N3CCCNCC3C)c12 (stereo in doubt) [H-1152, (S)-(+)-2-Methyl-1-[(4-methyl-5-isoquinolinyl)sulfonyl]homopiperazine]	allow the survival of HES cells after trypsin treatment	allows for very efficient seeding of individualized HES cells in 96-well plates; also recorded: allows for very efficient seeding of individualized human ES cells in 96-well plates	actively increased colony formation	–
O=S(=O)(c1cccc2cnccc12)N1CCNCC1 [HA-100]	allow the survival of HES cells after trypsin treatment	–	–	supports the ability of HA-100 to maintain HES cell growth

— patent publication US8815585B2, “Automated method and apparatus for embryonic stem cell culture” (Cellular Dynamics International, Inc., priority 2007, dated 2014)
